Assay results as given in patent US6908935B2, “Calcium receptor modulating agents” (Amgen Inc., priority 2002, dated 2005).
pEC50: −log10 of the molar value.

target: T1, human parathyroid cell Ca^2+ receptor (hPCaR) (Homo sapiens, UniProt P41180); test: [Ca2+]i measurement with fluo-3 in HEK 293 4.0-7 cells stably transfected with hPCaR; type: cell-based; conditions: fluo-3 fluorescence (485/530 nm), effect on [Ca^2+]i
T1 construct: expressed in transfected cells
T1 sequence (P41180 20-1078): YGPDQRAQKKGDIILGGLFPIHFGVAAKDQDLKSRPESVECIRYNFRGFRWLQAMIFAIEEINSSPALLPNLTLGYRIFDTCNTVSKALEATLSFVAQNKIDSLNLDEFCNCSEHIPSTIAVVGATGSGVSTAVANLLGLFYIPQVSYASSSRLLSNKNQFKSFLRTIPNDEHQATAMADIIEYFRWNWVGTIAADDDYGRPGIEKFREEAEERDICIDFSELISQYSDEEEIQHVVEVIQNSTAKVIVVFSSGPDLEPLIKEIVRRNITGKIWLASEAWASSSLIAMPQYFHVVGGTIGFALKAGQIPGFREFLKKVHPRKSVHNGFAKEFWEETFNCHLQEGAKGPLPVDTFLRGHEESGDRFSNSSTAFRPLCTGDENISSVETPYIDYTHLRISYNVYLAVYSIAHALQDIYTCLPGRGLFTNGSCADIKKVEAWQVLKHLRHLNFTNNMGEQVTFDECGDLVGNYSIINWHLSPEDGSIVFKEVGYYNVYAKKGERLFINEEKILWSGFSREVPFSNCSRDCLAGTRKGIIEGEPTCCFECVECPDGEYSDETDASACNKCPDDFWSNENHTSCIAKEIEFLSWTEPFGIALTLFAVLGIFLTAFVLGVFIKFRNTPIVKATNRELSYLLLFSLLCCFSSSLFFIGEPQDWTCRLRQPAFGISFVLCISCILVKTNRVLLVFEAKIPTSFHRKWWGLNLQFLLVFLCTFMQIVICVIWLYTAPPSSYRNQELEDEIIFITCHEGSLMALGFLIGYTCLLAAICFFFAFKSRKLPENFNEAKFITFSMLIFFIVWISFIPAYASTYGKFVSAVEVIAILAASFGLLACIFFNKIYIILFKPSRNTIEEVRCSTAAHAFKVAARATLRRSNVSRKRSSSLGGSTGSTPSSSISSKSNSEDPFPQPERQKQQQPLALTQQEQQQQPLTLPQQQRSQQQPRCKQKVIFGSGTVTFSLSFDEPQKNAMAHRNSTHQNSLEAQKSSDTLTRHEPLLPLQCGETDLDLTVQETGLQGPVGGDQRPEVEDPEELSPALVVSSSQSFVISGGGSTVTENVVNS
In short: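 HEK 293 cells stably expressing human parathyroid Ca2+ receptor (clone 4.0-7), loaded with 2 μM fluo-3 AM for 30 min at 37 °C in parathyroid cell buffer (pH 7.45) with 1 mM CaCl2 and 0.5% BSA. After compound addition, intracellular Ca2+ followed by fluorescence at 485 nm excitation/530 nm emission.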

| pEC50 | SMILES |
| --- | --- |
| ≥ 5.00 | C[C@@H](NCc1ccc(N2CCCC2)cc1)c1ccccc1 [(1R)-1-phenyl-N-((4-(1-pyrrolidinyl)phenyl)methyl)ethanamine] |
| ≥ 5.00 | C[C@@H](NCc1ccc(OCC(F)(F)F)c(-c2ccc(C(F)(F)F)cc2)c1)c1ccccc1 [(1R)-1-phenyl-N-((6-((2,2,2-trifluoroethyl)oxy)-4′-(trifluoromethyl)-1,1′-biphenyl-3-yl)methyl)ethanamine] |
| ≥ 5.00 | COc1ccc(CN[C@H](C)c2ccccc2)cc1-c1ccnc(Cl)c1 [(1R)-N-(3-(2-chloropyrid-4-yl)-4-methoxyphenyl)methyl-N-1-phenylethylamine] |
| ≥ 5.00 | COc1cccc([C@@H](C)NCc2cccc(-c3ccccc3F)c2)c1 [(1R)-N-((2′-fluoro-1,1′-biphenyl-3-yl)methyl)-1-(3-(methyloxy)phenyl)ethanamine] |
| ≥ 5.00 | COc1ccc([C@@H](C)NCc2cccc(-c3ccccc3F)c2)cc1 [(1R)-N-((2′-fluoro-1,1′-biphenyl-3-yl)methyl)-1-(4-(methyloxy)phenyl)ethanamine] |
| ≥ 5.00 | Cc1ccc([C@@H](C)NCc2cccc(-c3ccccc3F)c2)cc1 [(1R)-N-((2′-fluoro-1,1′-biphenyl-3-yl)methyl)-1-(4-methylphenyl)ethanamine] |
| ≥ 5.00 | COc1ccc([C@@H](C)NCc2cccc(-c3ccccc3C)c2)cc1 [(1R)-N-((2′-methyl-1,1′-biphenyl-3-yl)methyl)-1-(4-(methyloxy)phenyl)ethanamine] |
| ≥ 5.00 | Cc1ccc([C@@H](C)NCc2cccc(-c3ccccc3C)c2)cc1 [(1R)-N-((2′-methyl-1,1′-biphenyl-3-yl)methyl)-1-(4-methylphenyl)ethanamine] |
| ≥ 5.00 | COc1ccc([C@@H](C)NCc2cccc(-c3ccc4c(c3)OCO4)c2)cc1 [(1R)-N-((3-(1,3-benzodioxol-5-yl)phenyl)methyl)-1-(4-(methyloxy)phenyl)ethanamine] |
| ≥ 5.00 | Cc1ccc([C@@H](C)NCc2cccc(-c3ccc4c(c3)OCO4)c2)cc1 [(1R)-N-((3-(1,3-benzodioxol-5-yl)phenyl)methyl)-1-(4-methylphenyl)ethanamine] |
| ≥ 5.00 | C[C@@H](NCc1cccc(-c2ccc3c(c2)OCO3)c1)c1ccccc1 [(1R)-N-((3-(1,3-benzodioxol-5-yl)phenyl)methyl)-1-phenylethanamine] |
| ≥ 5.00 | COc1ccc(CN[C@H](C)c2cccc3ccccc23)cc1-c1nc2ccccc2s1 [(1R)-N-((3-(1,3-benzothiazol-2-yl)-4-(methyloxy)phenyl)methyl)-1-(1-naphthalenyl)ethanamine] |
| ≥ 5.00 | COc1cccc([C@@H](C)NCc2ccc(OC)c(-c3nc4ccccc4s3)c2)c1 [(1R)-N-((3-(1,3-benzothiazol-2-yl)-4-(methyloxy)phenyl)methyl)-1-(3-(methyloxy)phenyl)ethanamine] |
| ≥ 5.00 | COc1ccc(CN[C@H](C)c2ccccc2)cc1-c1nc2ccccc2s1 [(1R)-N-((3-(1,3-benzothiazol-2-yl)-4-(methyloxy)phenyl)methyl)-1-phenylethanamine] |
| ≥ 5.00 | COc1ccc(CN[C@H](C)c2cccc3ccccc23)cc1-c1ccc2ocnc2c1 [(1R)-N-((3-(1,3-benzoxazol-5-yl)-4-(methyloxy)phenyl)methyl)-1-(1-naphthalenyl)ethanamine] |
| ≥ 5.00 | COc1ccc(CN[C@H](C)c2cccc3ccccc23)cc1-c1ccc2c(ccn2CC2CC2)c1 [(1R)-N-((3-(1-(cyclopropylmethyl)-1H-indol-5-yl)-4-(methyloxy)phenyl)methyl)-1-(1-naphthalenyl)ethanamine] |
| ≥ 5.00 | COc1cccc([C@@H](C)NCc2ccc(OC)c(-c3ccc4c(ccn4CC4CC4)c3)c2)c1 [(1R)-N-((3-(1-(cyclopropylmethyl)-1H-indol-5-yl)-4-(methyloxy)phenyl)methyl)-1-(3-(methyloxy)phenyl)ethanamine] |
| ≥ 5.00 | COc1ccc(CN[C@H](C)c2ccccc2)cc1-c1ccc2c(ccn2CC2CC2)c1 [(1R)-N-((3-(1-(cyclopropylmethyl)-1H-indol-5-yl)-4-(methyloxy)phenyl)methyl)-1-phenylethanamine] |

| pEC50 | SMILES |
| --- | --- |
| ≥ 5.00 | COc1ccc(CN[C@H](C)c2cccc3ccccc23)cc1C1CCN(C(C)=O)CC1 [(1R)-N-((3-(1-acetyl-4-piperidinyl)-4-(methyloxy)phenyl)methyl)-1-(1-naphthalenyl)ethanamine] |
| ≥ 5.00 | COc1ccc(CN[C@H](C)c2cccc3ccccc23)cc1-c1csc2ccccc12 [(1R)-N-((3-(1-benzothien-3-yl)-4-(methyloxy)phenyl)methyl)-1-(1-naphthalenyl)ethanamine] |
| ≥ 5.00 | COc1ccc(CN[C@H](C)c2ccccc2)cc1-c1csc2ccccc12 [(1R)-N-((3-(1-benzothien-3-yl)-4-(methyloxy)phenyl)methyl)-1-phenylethanamine] |
| ≥ 5.00 | COc1ccc(CN[C@H](C)c2cccc3ccccc23)cc1-c1nc2ccccc2n1C [(1R)-N-((3-(1-methyl-1H-benzimidazol-2-yl)-4-(methyloxy)phenyl)methyl)-1-(1-naphthalenyl)ethanamine] |
| ≥ 5.00 | COc1ccc(CN[C@H](C)c2cccc3ccccc23)cc1-c1ccc2c(c1)ncn2C [(1R)-N-((3-(1-methyl-1H-benzimidazol-5-yl)-4-(methyloxy)phenyl)methyl)-1-(1-naphthalenyl)ethanamine] |
| ≥ 5.00 | COc1cccc([C@@H](C)NCc2ccc(OC)c(-c3ccc4c(c3)ncn4C)c2)c1 [(1R)-N-((3-(1-methyl-1H-benzimidazol-5-yl)-4-(methyloxy)phenyl)methyl)-1-(3-(methyloxy)phenyl)ethanamine] |
| ≥ 5.00 | COc1ccc(CN[C@H](C)c2ccccc2)cc1-c1ccc2c(c1)ncn2C [(1R)-N-((3-(1-methyl-1H-benzimidazol-5-yl)-4-(methyloxy)phenyl)methyl)-1-phenylethanamine] |
| ≥ 5.00 | COc1ccc(CN[C@H](C)c2cccc3ccccc23)cc1-c1cn(C)cn1 [(1R)-N-((3-(1-methyl-1H-imidazol-4-yl)-4-(methyloxy)phenyl)methyl)-1-(1-naphthalenyl)ethanamine] |
| ≥ 5.00 | COc1ccc(CN[C@H](C)c2ccccc2)cc1-c1cn(C)cn1 [(1R)-N-((3-(1-methyl-1H-imidazol-4-yl)-4-(methyloxy)phenyl)methyl)-1-phenylethanamine] |
| ≥ 5.00 | COc1ccc(CN[C@H](C)c2cccc3ccccc23)cc1-c1ccc2c(cnn2C)c1 [(1R)-N-((3-(1-methyl-1H-indazol-5-yl)-4-(methyloxy)phenyl)methyl)-1-(1-naphthalenyl)ethanamine] |
| ≥ 5.00 | COc1ccc(CN[C@H](C)c2ccccc2)cc1-c1ccc2c(cnn2C)c1 [(1R)-N-((3-(1-methyl-1H-indazol-5-yl)-4-(methyloxy)phenyl)methyl)-1-phenylethanamine] |
| ≥ 5.00 | COc1ccc(CN[C@H](C)c2cccc3ccccc23)cc1-c1ccc2ccn(C)c2c1 [(1R)-N-((3-(1-methyl-1H-indol-6-yl)-4-(methyloxy)phenyl)methyl)-1-(1-naphthalenyl)ethanamine] |
| ≥ 5.00 | COc1cccc([C@@H](C)NCc2ccc(OC)c(-c3ccc4ccn(C)c4c3)c2)c1 [(1R)-N-((3-(1-methyl-1H-indol-6-yl)-4-(methyloxy)phenyl)methyl)-1-(3-(methyloxy)phenyl)ethanamine] |
| ≥ 5.00 | COc1ccc(CN[C@H](C)c2ccccc2)cc1-c1ccc2ccn(C)c2c1 [(1R)-N-((3-(1-methyl-1H-indol-6-yl)-4-(methyloxy)phenyl)methyl)-1-phenylethanamine] |
| ≥ 5.00 | COc1ccc(CN[C@H](C)c2ccc3ccccc3c2)cc1-c1ccc2[nH]ccc2c1 [(1R)-N-((3-(1H-indol-5-yl)-4-(methyloxy)phenyl)methyl)-1-(2-naphthalenyl)ethanamine] |
| ≥ 5.00 | COc1cccc([C@@H](C)NCc2ccc(OC)c(-c3ccc4[nH]ccc4c3)c2)c1 [(1R)-N-((3-(1H-indol-5-yl)-4-(methyloxy)phenyl)methyl)-1-(3-(methyloxy)phenyl)ethanamine] |
| ≥ 5.00 | COc1ccc([C@@H](C)NCc2ccc(OC)c(-c3ccc4[nH]ccc4c3)c2)cc1 [(1R)-N-((3-(1H-indol-5-yl)-4-(methyloxy)phenyl)methyl)-1-(4-(methyloxy)phenyl)ethanamine] |
